Test results from patent publication US8716437B2 (priority 2007, dated 2014).

What was measured:
guinea pig ileum [1] = assay: Intraluminal pressure measurement of peristaltic activity of guinea pig ileum; conditions: MgTX 10 nM; mokatoxin-1 1-100 nM
guinea pig ileum [2] = assay: Spontaneous motility (twitches) of guinea pig ileum strips; conditions: reference toxins 10 nM; mokatoxin-1 1-100 nM
guinea pig ileum [3] = conditions: J Pharmacol Exp Ther. 1999; cited from earlier work

Protocol for Human CD3+ T cells: 10^5 freshly isolated CD3′ T cells were activated using CD3/CD28 dynabeads (Dynal, USA) at a T cell:bead ratio of 1:1 in 200 ul of medium in 96 wells plate. Channel blockers diluted at different concentrations in PBS were added to the cells 1 h prior to stimulation (done in triplicate).
Human CD3′ T cells were stimulated with CD3/CD28 beads following incubation with different concentrations (from 0.1 to 100 nM) of MK and KTX. The activity of MK was compared to the activity of KTX that was previously described to block the channels (Beeton et al, JI 2001).

| Molecule | cell viability (Human CD3+ T cells) | pressure threshold for initiation and frequency of peristaltic waves (guinea pig ileum [1]) | induction of twitches in ileum strips (guinea pig ileum [2]) | ileum contractions (guinea pig ileum [3]) |
| --- | --- | --- | --- | --- |
| CC[C@H](C)[C@H](N)C(=O)N[C@@H](CC(N)=O)C(=O)N[C@H](C(=O)N[C@@H](CCCCN)C(=O)N[C@H]1CSSC[C@@H]2NC(=O)[C@H](CCCCN)NC(=O)CNC(=O)[C@H](Cc3ccccc3)NC(=O)[C@H](CCCNC(=N)N)NC(=O)[C@H](CCSC)NC(=O)CNC(=O)[C@H](C)NC(=O)[C@H](CC(=O)O)NC(=O)[C@H](CCCCN)NC(=O)[C@@H]3CSSC[C@@H](C(=O)N[C@@H](Cc4ccc(O)cc4)C(=O)N[C@@H](CO)C(=O)O)NC(=O)[C@H](CCCNC(=N)N)NC(=O)[C@H](CSSC[C@H](NC(=O)[C@H](CCC(N)=O)NC(=O)[C@H](CCC(N)=O)NC(=O)[C@@H]4CCCN4C(=O)[C@H](CC(C)C)NC(=O)[C@H](CO)NC1=O)C(=O)N[C@@H]([C@@H](C)CC)C(=O)N[C@@H](CCCCN)C(=O)N1CCC[C@H]1C(=O)N3)NC(=O)[C@H](CCCCN)NC(=O)[C@H](CCCCN)NC(=O)[C@H](CC(N)=O)NC(=O)[C@H](CCSC)NC2=O)C(C)C [MK-1, mokatoxin-1] | no reduction of cell viability |  |  |  |
| Margatoxin |  | induced a lowering of the pressure threshold | induced twitches | contractions |
